Test results published in patent publication US20160338351A1, “(S)-ABSCISIC ACID DERIVATIVES FOR ENHANCED GRAPE COLORATION” (Valent BioSciences Corporation, priority 2015, published 2016).
Counter-ions that a name gives are not always drawn.

Columns and labels:
Assay type in all cases: in vivo, Vitis vinifera
[1] = test system: Crimson Seedless grape clusters; experiment: Field study, Example 1: anthocyanin content of berries harvested about four weeks after treatment; settings: for Total Anthocyanin Content: berries harvested about four weeks after treatment
Description: (§1) A field study was conducted in California to compare the efficacy of S-ABA to 3′-methyl-(S)-ABA in promoting red grape coloration. S-ABA and 3′-methyl-(S)-ABA were formulated as aqueous solutions of the corresponding potassium salt to the desired concentrations with the final pHs being between 6.5 and 7.2. Individual Crimson Seedless grape clusters were selected and tagged, with 20 tagged clusters per treatment. The treatments were applied as cluster-directed sprays using a trigger sprayer at 15 to 20 mL per cluster to ensured good coverage of the grapes. Application of 15 to 20 milliliters per cluster simulates application of about 109 gallons per acre directed at the approximately 40 clusters per vine in a vineyard with 518 vines per acre. Based on these estimates, Applicant determined the approximate grams per acre. The equation is as follows: 20 ml/cluster×40 cluster/vine=800 ml/vine×518 vine/acre=(414,400 ml/acre)/(1000 ml/liter)=414 liters/acre. An estimation of grams per acre was made by multiplying the mg per cluster with 20,720 clusters/acre (40 clusters/vine×518 vines/acre=20,720 clusters/acre).
(§2) Periodically after the treatments, the grape clusters were evaluated for color development by visual ratings over a six-week period. The coloration was graded on a 1 to 8 grading scale, where a rating of 1 has very little or no red color and a rating of 8 has a deep or dark red color. The percentages of berries that reached marketable red coloration for each cluster were averaged and recorded for each treatment. Additionally, representative berries from each treatment group were harvested about four weeks after treatment and analyzed for anthocyanin content.

Crimson Seedless grapes = experiment: Trial, Example 2: visual color rating of grape clusters on a 1 to 8 scale; parameters: key to Color Ratings: 1 = little/no red color, 8 = deep/dark red color; settings: for Color Ratings: applied day 0 and day 11, 1 to 8 grading scale; for potency in promoting red color development compared with another compound: Crimson Seedless grapes; for red color development in comparison with the untreated control: six-week evaluation period
Description: Another trial was conducted in California on Crimson Seedless grapes to compare the efficacy of S-ABA, 3′-methyl-(S)-ABA and 3′-propargyl-(S)-ABA in promoting coloration. All three compounds were formulated as aqueous solutions of the corresponding potassium salt to the desired concentrations, with the final pHs being between 6.5 and 7.2. Individual Crimson Seedless grape clusters were selected and tagged, with 20 tagged clusters per treatment. The solutions were applied as cluster-directed sprays using a trigger sprayer at 15 to 20 milliliters per cluster which ensured good coverage of the grapes. The treatments were applied on day 0 and day 11 of the trial. Periodically during the trial, the grape clusters were evaluated for color development by visual ratings over a six-week period and the coloration was graded on a 1 to 8 grading scale, where a rating of 1 has very little or no red color and a rating of 8 has a deep or dark red color.

[2] = test system: Crimson Seedless grape clusters; experiment: Field study, Example 1: visual rating of red grape coloration, % of berries with marketable color; settings: for activity relative to S-ABA for enhancing grape coloration: from % marketable color data, 40 ppm vs 400 ppm S-ABA
Description: as §1, §2

[3] = 4 ppm, 0.06-0.08 mg/cluster, 1.2-1.6 g/acre, 3 DAT
[4] = 4 ppm, 0.06-0.08 mg/cluster, 1.2-1.6 g/acre, 10 DAT
[5] = 4 ppm, 0.06-0.08 mg/cluster, 1.2-1.6 g/acre, 14 DAT
[6] = 4 ppm, 0.06-0.08 mg/cluster, 1.2-1.6 g/acre, 21 DAT
[7] = 4 ppm, 0.06-0.08 mg/cluster, 1.2-1.6 g/acre, 31 DAT
[8] = 4 ppm, 0.06-0.08 mg/cluster, 1.2-1.6 g/acre, 41 DAT
[9] = 40 ppm, 0.6-0.8 mg/cluster, 12-16 g/acre, 3 DAT
[10] = 40 ppm, 0.6-0.8 mg/cluster, 12-16 g/acre, 10 DAT
[11] = 40 ppm, 0.6-0.8 mg/cluster, 12-16 g/acre, 14 DAT
[12] = 40 ppm, 0.6-0.8 mg/cluster, 12-16 g/acre, 21 DAT
[13] = 40 ppm, 0.6-0.8 mg/cluster, 12-16 g/acre, 31 DAT
[14] = 40 ppm, 0.6-0.8 mg/cluster, 12-16 g/acre, 41 DAT (end of six-week evaluation)

CC1=C(C)[C@](O)(/C=C/C(C)=C\C(=O)O)C(C)(C)CC1=O [3′-methyl-(S)-ABA, K^+ salt, (2Z,4E)-5-((S)-1-hydroxy-2,3,6,6-tetramethyl-4-oxocyclohex-2-en-1-yl)-3-methylpenta-2,4-dienoic acid]
Total Anthocyanin Content ([1]; 0.3-0.4 mg/cluster (20 ppm, 15-20 mL)): 68 mg/L
Total Anthocyanin Content ([1]; 0.6-0.8 mg/cluster (40 ppm, 15-20 mL)): 78 mg/L
Total Anthocyanin Content ([1]; 3-4 mg/cluster (200 ppm, 15-20 mL)): 181 mg/L
Total Anthocyanin Content ([1]; 6-8 mg/cluster (400 ppm, 15-20 mL)): 247 mg/L
activity relative to S-ABA in promoting Crimson Seedless grape coloration ([1]; from anthocyanin analysis of Table 2): approximately 10 times
calculated relative potency versus S-ABA ([1]; rate of S-ABA needed to achieve the same effect): 8.4 times
Color Ratings (Crimson Seedless grapes; [3]): 1
Color Ratings (Crimson Seedless grapes; [4]): 1.6
Color Ratings (Crimson Seedless grapes; [5]): 1.9
Color Ratings (Crimson Seedless grapes; [6]): 2.4
Color Ratings (Crimson Seedless grapes; [7]): 2.7
Color Ratings (Crimson Seedless grapes; [8]): 2.8
Color Ratings (Crimson Seedless grapes; 20 ppm, 6-8 g/acre, 3 DAT): 1.3
Color Ratings (Crimson Seedless grapes; 20 ppm, 6-8 g/acre, 10 DAT): 1.7
Color Ratings (Crimson Seedless grapes; 20 ppm, 6-8 g/acre, 14 DAT): 2.3
Color Ratings (Crimson Seedless grapes; 20 ppm, 6-8 g/acre, 21 DAT): 2.9
Color Ratings (Crimson Seedless grapes; 20 ppm, 6-8 g/acre, 31 DAT): 3.5
Color Ratings (Crimson Seedless grapes; 20 ppm, 6-8 g/acre, 41 DAT): 3.5
Color Ratings (Crimson Seedless grapes; [9]): 1.1
Color Ratings (Crimson Seedless grapes; [10]): 1.3
Color Ratings (Crimson Seedless grapes; [11]): 2.7
Color Ratings (Crimson Seedless grapes; [12]): 3.9
Color Ratings (Crimson Seedless grapes; [13]): 4.7
Color Ratings (Crimson Seedless grapes; [14]): 5.5
potency in promoting red color development compared with another compound (Crimson Seedless grapes): more effective than S-ABA
red color development in comparison with the untreated control (Crimson Seedless grapes): dose-dependent accelerated red color development
coloration effect compared with 6 to 8 mg per cluster (400 ppm) of S-ABA ([2]; 0.6 to 0.8 mg per cluster (40 ppm, 15 to 20 mL)): even more efficacious
Coloring Ratings, % of the berries with marketable color ([2]; 20 ppm, 0.3-0.4 mg/cluster, 6-8 grams/acre, 7 DAT): 34%
Coloring Ratings, % of the berries with marketable color ([2]; 20 ppm, 0.3-0.4 mg/cluster, 6-8 grams/acre, 14 DAT): 67%
Coloring Ratings, % of the berries with marketable color ([2]; 20 ppm, 0.3-0.4 mg/cluster, 6-8 grams/acre, 27 DAT): 79%
Coloring Ratings, % of the berries with marketable color ([2]; 20 ppm, 0.3-0.4 mg/cluster, 6-8 grams/acre, 33 DAT): 85%
Coloring Ratings, % of the berries with marketable color ([2]; 20 ppm, 0.3-0.4 mg/cluster, 6-8 grams/acre, 43 DAT): 89%
Coloring Ratings, % of the berries with marketable color ([2]; 40 ppm, 0.6-0.8 mg/cluster, 12-16 grams/acre, 7 DAT): 52%
Coloring Ratings, % of the berries with marketable color ([2]; 40 ppm, 0.6-0.8 mg/cluster, 12-16 grams/acre, 14 DAT): 83%
Coloring Ratings, % of the berries with marketable color ([2]; 40 ppm, 0.6-0.8 mg/cluster, 12-16 grams/acre, 27 DAT): 92%
Coloring Ratings, % of the berries with marketable color ([2]; 40 ppm, 0.6-0.8 mg/cluster, 12-16 grams/acre, 33 DAT): 95%
Coloring Ratings, % of the berries with marketable color ([2]; 40 ppm, 0.6-0.8 mg/cluster, 12-16 grams/acre, 43 DAT): 97%
Coloring Ratings, % of the berries with marketable color ([2]; 200 ppm, 3-4 mg/cluster, 60-80 grams/acre, 7 DAT): 72%
Coloring Ratings, % of the berries with marketable color ([2]; 200 ppm, 3-4 mg/cluster, 60-80 grams/acre, 14 DAT): 89%
Coloring Ratings, % of the berries with marketable color ([2]; 200 ppm, 3-4 mg/cluster, 60-80 grams/acre, 27 DAT): 95%
Coloring Ratings, % of the berries with marketable color ([2]; 200 ppm, 3-4 mg/cluster, 60-80 grams/acre, 33 DAT): 95%
Coloring Ratings, % of the berries with marketable color ([2]; 200 ppm, 3-4 mg/cluster, 60-80 grams/acre, 43 DAT): 100%
Coloring Ratings, % of the berries with marketable color ([2]; 400 ppm, 6-8 mg/cluster, 120-160 grams/acre, 7 DAT): 76%
Coloring Ratings, % of the berries with marketable color ([2]; 400 ppm, 6-8 mg/cluster, 120-160 grams/acre, 14 DAT): 98%
Coloring Ratings, % of the berries with marketable color ([2]; 400 ppm, 6-8 mg/cluster, 120-160 grams/acre, 27 DAT): 99%
Coloring Ratings, % of the berries with marketable color ([2]; 400 ppm, 6-8 mg/cluster, 120-160 grams/acre, 33 DAT): 99%
Coloring Ratings, % of the berries with marketable color ([2]; 400 ppm, 6-8 mg/cluster, 120-160 grams/acre, 43 DAT): 99%
marketable coloration ([2]; 400 ppm, 6 to 8 mg per cluster, 15 to 20 mL, in two weeks): ~90%
activity relative to S-ABA for enhancing grape coloration [2]: approximately 10 times
activity relative to S-ABA for enhancing grape coloration ([2]; listed as 3′-methyl-(S)-abscisic acid): ten times as effective as S-ABA

C#CCC1=C(C)[C@](O)(/C=C/C(C)=C\C(=O)O)C(C)(C)CC1=O [3′-propargyl-(S)-ABA, K^+ salt, (2Z,4E)-5-((S)-1-hydroxy-2,6,6-trimethyl-4-oxo-3-(prop-2-yn-1-yl)cyclohex-2-en-1-yl)-3-methylpenta-2,4-dienoic acid]
Color Ratings (Crimson Seedless grapes; [3]): 1.1
Color Ratings (Crimson Seedless grapes; [4]): 1.3
Color Ratings (Crimson Seedless grapes; [5]): 1.5
Color Ratings (Crimson Seedless grapes; [6]): 1.9
Color Ratings (Crimson Seedless grapes; [7]): 2.4
Color Ratings (Crimson Seedless grapes; [8]): 2.4
Color Ratings (Crimson Seedless grapes; 20 ppm, 6-8 g/acre, 3 DAT): 1.1
Color Ratings (Crimson Seedless grapes; 20 ppm, 6-8 g/acre, 10 DAT): 1.5
Color Ratings (Crimson Seedless grapes; 20 ppm, 6-8 g/acre, 14 DAT): 1.8
Color Ratings (Crimson Seedless grapes; 20 ppm, 6-8 g/acre, 21 DAT): 2.2
Color Ratings (Crimson Seedless grapes; 20 ppm, 6-8 g/acre, 31 DAT): 2.9
Color Ratings (Crimson Seedless grapes; 20 ppm, 6-8 g/acre, 41 DAT): 3.1
Color Ratings (Crimson Seedless grapes; [9]): 1.1
Color Ratings (Crimson Seedless grapes; [10]): 1.5
Color Ratings (Crimson Seedless grapes; [11]): 1.8
Color Ratings (Crimson Seedless grapes; [12]): 2.6
Color Ratings (Crimson Seedless grapes; [13]): 3.1
Color Ratings (Crimson Seedless grapes; [14]): 3.3
potency in promoting red color development compared with another compound (Crimson Seedless grapes): less potent than 3′-methyl-(S)-ABA
red color development in comparison with the untreated control (Crimson Seedless grapes): accelerated coloration
